≈ marks a conversion by molar mass, not a printed value.
How the values were obtained:
Assay in all cases: Antifungal activity test (in vitro), MIC
Assay type in all cases: cell-based
[1] = system: Trichophyton mentagrophytes ATCC 9533; conditions: ATCC9533
Method: (§1) Minimum inhibitory concentration (MIC) of each of the compounds obtained in Examples 1 to 12 was measured for respective fungi at MOS Pharm Service, by the methods described in Antimicrobial Agents and Chemotherapy, vol. 3, pp. 40-48 (1973), Antimicrobial Agents and Chemotherapy, vol. 33, pp. 215-222 (1989) and Antimicrobial Agents and Chemotherapy, vol. 38, pp. 2362-2368 (1994). The measuring conditions are shown in the following. In this case, Voriconazol was used as a comparative compound. Trichophyton mentagrophytes ATCC 9533; Cultured at 28° C. for 3 days using fluid Sabouraud medium, and this was used as a cell suspension. Each of the compounds of the invention was adjusted to a concentration of 1% by weight using dimethyl sulfoxide (DMSO) and a medium similar to the respective medium used in the above-mentioned fungal culture, having a final concentration of from 0.001 to 100 μg/ml, was prepared. Each of the inoculation cell suspensions prepared by the above-mentioned methods was inoculated onto this agar plate. […] In this connection, Voriconazol was used as the comparative compound C-1.

[2] = system: Aspergillus fumigatus ATCC 1028; conditions: ATCC1028
Method: Minimum inhibitory concentration (MIC) of each of the compounds obtained in Examples 1 to 12 was measured for respective fungi at MOS Pharm Service, by the methods described in Antimicrobial Agents and Chemotherapy, vol. 3, pp. 40-48 (1973), Antimicrobial Agents and Chemotherapy, vol. 33, pp. 215-222 (1989) and Antimicrobial Agents and Chemotherapy, vol. 38, pp. 2362-2368 (1994). The measuring conditions are shown in the following. In this case, Voriconazol was used as a comparative compound.
Aspergillus fumigatus ATCC 1028; Cultured at 28° C. for 2 days using potato dextrose broth, and this was used as a cell suspension.
Each of the compounds of the invention was adjusted to a concentration of 1% by weight using dimethyl sulfoxide (DMSO) and a medium similar to the respective medium used in the above-mentioned fungal culture, having a final concentration of from 0.001 to 100 μg/ml, was prepared. Each of the inoculation cell suspensions prepared by the above-mentioned methods was inoculated onto this agar plate. […] In this connection, Voriconazol was used as the comparative compound C-1.

[3] = system: Pityrosporum ovale ATCC 38593; conditions: Malassezia furfur, ATCC38593
Method: as §1, with “Cryptococcus neoformans” for “Trichophyton mentagrophytes”, “24067, Pityrosporum ovale ATCC 38593;” for “9533;”, “37°” for “28°”, “2 day” for “3 days”

[4] = system: Cryptococcus neoformans ATCC 24067; conditions: ATCC24067
Method: as §1, with “Cryptococcus neoformans” for “Trichophyton mentagrophytes”, “24067, Pityrosporum ovale ATCC 38593;” for “9533;”, “37°” for “28°”, “2 day” for “3 days”

[5] = system: Microsporum canis ATCC 36299; conditions: ATCC36299
Method: as §1, with “compound. Microsporum canis” for “compound. Trichophyton mentagrophytes”, “ATCC 36299;” for “ATCC 9533;”, “at 30°” for “at 28°”, “for 2” for “for 3”

[6] = system: Candida albicans ATCC 10231; conditions: ATCC10231
Method: as §1, with “Candida albicans” for “Trichophyton mentagrophytes”, “10231 and ATCC 44858;” for “9533;”, “37°” for “28°”, “20 hours” for “3 days”

Structure (SMILES) | MIC [1] | MIC [2] | MIC [3] | MIC [4] | MIC [5] | MIC [6]
C[C@@H](N1CC=C(c2ccccn2)CC1)[C@](O)(Cn1cncn1)c1ccc(F)cc1F [I-3, (2R,3R)-2-(2,4-difluorophenyl)-3-(3′,6′-dihydro-2,4′-bipyridin-1′(2′H)-yl)-1-(1,2,4-triazol-1-yl)butan-2-ol] | 0.1 µg/mL (≈ 0.243 µM) | 1 µg/mL (≈ 2.43 µM) | 0.003 µg/mL (≈ 0.00729 µM) | 0.3 µg/mL (≈ 0.729 µM) | 0.03 µg/mL (≈ 0.0729 µM) | 0.3 µg/mL (≈ 0.729 µM)
C[C@@H](N1CCC(c2ccccn2)CC1)[C@](O)(Cn1cncn1)c1ccc(F)cc1F [I-1, (2R,3R)-2-(2,4-difluorophenyl)-3-(4-pyridin-2-ylpiperidin-1-yl)-1-(1,2,4-triazol-1-yl)butan-2-ol] | 0.3 µg/mL (≈ 0.726 µM) | 10 µg/mL (≈ 24.2 µM) | 0.3 µg/mL (≈ 0.726 µM) | 0.1 µg/mL (≈ 0.242 µM) | 0.3 µg/mL (≈ 0.726 µM) | 0.3 µg/mL (≈ 0.726 µM)
C[C@@H](N1CC=C(c2ccc(Cl)cn2)CC1)[C@](O)(Cn1cncn1)c1ccc(F)cc1F [I-6, (2R,3R)-3-(5-chloro-3′,6′-dihydro-2,4′-bipyridin-1′(2′H)-yl)-2-(2,4-difluorophenyl)-1-(1,2,4-triazol-1-yl)butan-2-ol] | 0.1 µg/mL (≈ 0.224 µM) | 1 µg/mL (≈ 2.24 µM) | 0.003 µg/mL (≈ 0.00673 µM) | 0.03 µg/mL (≈ 0.0673 µM) | 0.3 µg/mL (≈ 0.673 µM) | 0.01 µg/mL (≈ 0.0224 µM)

— US7973056B2, “Triazole derivative or salt thereof” (Fujifilm Finechemicals Co., Ltd, priority 2008, dated 2011)
